Data reported in US10391110B2, “Composition for preventing or treating vascular leak syndrome” (INTELLIGENT SYNTHETIC BIOLOGY CENTER, priority 2015, dated 2019).

What was measured:
[1] = tested on: human umbilical vascular endothelial cells (HUVECs); test: tube formation assay in HUVECs; type: cell-based; conditions: 25 μM ginsenoside, 4 hours, vs DMSO negative control and VEGF-A positive control
Procedure: (§1) The angiogenesis-promoting activities between human umbilical vascular endothelial cells (HUVECs) and human retinal microvascular endothelial cells (HRMECs) using 10 kinds of ginsenoside compounds (CK, Rh2, Rg3, Rb1, F2, Rd, Re, Rg1, Rh1, or F1). That is, HUVECs or HRMECs were cultured in an incubator (5% CO2 and 37° C.) using 2% FBS, EGM-2 (Lonza, Walkersville, Md., USA) medium. A 96-well plate was coated with Matrigel (BD Biosciences) for 1 hour. Then, HUVECs or HRMECs (10^4 cells/well, respectively), which were mixed with a 0.1% FBS-containing EBM-2 medium respectively treated with 25 μM of ginsenoside compounds (CK, Rh2, Rg3, Rb1, F2, Rd, Re, Rg1, Rh1, or F1), were seeded on the 96-well plate. After 4 hours of incubation, a tube formation assay was performed and the number of tubes formed was compared by microscopic observation and photographing (FIGS. 1a, 1b, 2a, and 2b). In particular, the cells cultured after treating with DMSO instead of ginsenoside were used as a negative control, and the cells cultured after treating with VEGF-A, which is known to promote angiogenesis, were used as a positive control.
(§2) The HUVECs or HRMECs, which were cultured by the method of Example 1, were cultured after treating at various concentrations (12.5, 25, or 50 μM) of ginsenoside F1 or Rh1 selected from Example 1 for 4 hours, and the number of tubes formed was compared by performing a tube formation assay (FIGS. 3 and 4). In particular, the cells cultured after treating with DMSO instead of ginsenoside were used as a negative control and the cells cultured after treating with VEGF-A, which is known to promote angiogenesis, were used as a positive control.

[2] = tested on: human retinal microvascular endothelial cells (HRMECs); test: tube formation assay in HRMECs; type: cell-based; conditions: 25 μM ginsenoside, 4 hours, vs DMSO negative control and VEGF-A positive control
Procedure: as §1, §2

HUVECs [3] = test: MTT cell proliferation assay in HUVECs; type: cell-based, human; conditions: 48 hours, concentrations 0, 3.125, 6.25, 12.5, or 25 μM
Procedure: The HUVECs or HRMECs, which were cultured by the method of Example 1, were cultured after treating at various concentrations (0, 3.125, 6.25, 12.5, or 25 μM) of three kinds of ginsenosides (F1, Rh1, or Rg1), which were confirmed to promote tube formation in Example 1, for 48 hours, and the level of cell proliferation was compared by performing the MTT assay with respect to the cultured cells (FIGS. 5 and 6). In particular, the cells cultured after treating with DMSO instead of ginsenoside were used as a negative control, and the cells cultured after treating with VEGF-A, which is known to promote angiogenesis, were used as a positive control.

HUVECs [4] = test: vascular permeability assay, VEGF-A-treated HUVECs; type: cell-based, human; conditions: for vascular leakage induced by VEGF-A: HUVECs pretreated with 25 μM ginsenoside for 1 hour, then VEGF-A; for level of vascular leakage, pretreatment plus VEGF-A compared to ginsenoside alone: HUVECs, 25 μM ginsenoside pretreatment 1 hour then VEGF-A vs ginsenoside alone
Procedure: The HUVECs, cultured by a method described in Example 1, were pretreated with 25 μM ginsenoside F1 or Rh1 for 1 hour selected from Example 1, treated with VEGF-A, and then subjected to a vascular permeability assay (FIG. 9). In particular, the cells cultured after treating with DMSO instead of ginsenoside were used as a negative control; the cells cultured after treating with VEGF-A, which is known to promote angiogenesis, were used as a positive control; and the cells pretreated with ginsenoside F1 or Rh1 and not treated with VEGF-A were used as a comparative group.

ICR mice = test: VEGF-A-induced vascular leakage in mouse ears (Evans blue); type: in vivo; conditions: ear intradermal 10 μL, ginsenoside 1.25 μM with VEGF-A 250 μg, 30 minutes
Procedure: Seven-week-old male ICR mice were injected with 1% Evans blue dye (200 μL) into the tail vein and allowed to react for 10 minutes to dye the blood in blue.
Then, the mice were intradermally injected in an amount of 10 μL through the ears with PBS (negative control), VEGF-A (250 μg, positive control), ginsenoside F1 (1.25 μM), ginsenoside Rh1 (1.25 μM), VEGF-A (250 μg)/ginsenoside F1 (1.25 μM), or VEGF-A (250 μg)/ginsenoside Rh1 (1.25 μM), respectively.
Thirty minutes thereafter, the mice were subjected to euthanasia and their ears were removed. After confirming the amount of blood leakage by the naked eye (FIG. 10A), the ears were put in formamide and fixed at 37° C. for 24 hours. Then, the effects of F1 or Rh1 on the inhibition of blood leakage were quantitatively evaluated by measuring the absorbance at 620 nm (FIG. 10B).

Compound	number of tubes formed (tube formation) [1]	number of tubes formed (tube formation) [2]	promotion of cell proliferation (HUVECs [3])	vascular leakage induced by VEGF-A (HUVECs [4])	level of vascular leakage, pretreatment plus VEGF-A compared to ginsenoside alone (HUVECs [4])	vascular leakage symptoms induced by VEGF-A (Evans blue, absorbance at 620 nm) (ICR mice)
CC(C)=CCC[C@](C)(O[C@@H]1O[C@H](CO)[C@@H](O)[C@H](O)[C@H]1O)[C@H]1CC[C@]2(C)[C@@H]1[C@H](O)C[C@@H]1[C@@]3(C)CC[C@H](O)C(C)(C)[C@@H]3CC[C@]12C [ginsenoside CK]	effect of inhibiting tube formation	effect of inhibiting tube formation	–	–	–	–
CC(C)=CCCC(C)(OC1OC(CO)C(O)C(O)C1O)C1CCC2(C)C1C(O)CC1C3(C)CCC(O)C(C)(C)C3C(O)CC12C [ginsenoside F1, 20-O-β-D-glucopyranosyl-20(S)-protopanaxatriol]	effect of promoting tube formation at a higher level compared to that of the positive control	effect of promoting tube formation at a higher level compared to that of the positive control	about 20%	vascular leakage was inhibited by the pretreatment	further reduced compared to when the HUVECs were treated with ginsenoside F1 or Rh1 alone	effectively inhibit the vascular leakage symptoms induced by VEGF-A
CC(C)=CCC[C@](C)(O[C@@H]1O[C@H](CO)[C@@H](O)[C@H](O)[C@H]1O)[C@H]1CC[C@]2(C)[C@@H]1[C@H](O)C[C@@H]1[C@@]3(C)CC[C@H](O[C@@H]4O[C@H](CO)[C@@H](O)[C@H](O)[C@H]4O)C(C)(C)[C@@H]3CC[C@]12C [ginsenoside F2]	did not show any noticeable difference	effect of promoting tube formation	–	–	–	–
CC(C)=CCC[C@](C)(O[C@@H]1O[C@H](CO[C@@H]2O[C@H](CO)[C@@H](O)[C@H](O)[C@H]2O)[C@@H](O)[C@H](O)[C@H]1O)[C@H]1CC[C@]2(C)[C@@H]1[C@H](O)C[C@@H]1[C@@]3(C)CC[C@H](O[C@@H]4O[C@H](CO)[C@@H](O)[C@H](O)[C@H]4O[C@@H]4O[C@H](CO)[C@@H](O)[C@H](O)[C@H]4O)C(C)(C)[C@@H]3CC[C@]12C [ginsenoside Rb1]	did not show any noticeable difference	effect of promoting tube formation	–	–	–	–
CC(C)=CCC[C@](C)(O[C@@H]1O[C@H](CO)[C@@H](O)[C@H](O)[C@H]1O)[C@H]1CC[C@]2(C)[C@@H]1[C@H](O)C[C@@H]1[C@@]3(C)CC[C@H](O[C@@H]4O[C@H](CO)[C@@H](O)[C@H](O)[C@H]4O[C@@H]4O[C@H](CO)[C@@H](O)[C@H](O)[C@H]4O)C(C)(C)[C@@H]3CC[C@]12C [ginsenoside Rd]	effect of promoting tube formation	effect of promoting tube formation	–	–	–	–
CC(C)=CCC[C@](C)(O[C@@H]1O[C@H](CO)[C@@H](O)[C@H](O)[C@H]1O)[C@H]1CC[C@]2(C)[C@@H]1[C@H](O)C[C@@H]1[C@@]3(C)CC[C@H](O)C(C)(C)[C@@H]3[C@@H](O[C@@H]3O[C@H](CO)[C@@H](O)[C@H](O)[C@H]3O[C@@H]3O[C@@H](C)[C@H](O)[C@@H](O)[C@H]3O)C[C@]12C [ginsenoside Re]	effect of promoting tube formation	effect of promoting tube formation	–	–	–	–
CC(C)=CCC[C@](C)(O[C@@H]1O[C@H](CO)[C@@H](O)[C@H](O)[C@H]1O)[C@H]1CC[C@]2(C)[C@@H]1[C@H](O)C[C@@H]1[C@@]3(C)CC[C@H](O)C(C)(C)[C@@H]3[C@@H](O[C@@H]3O[C@H](CO)[C@@H](O)[C@H](O)[C@H]3O)C[C@]12C [ginsenoside Rg1]	effect of promoting tube formation	effect of promoting tube formation	about 60%	–	–	–
CC(C)=CCC[C@](C)(O)[C@H]1CC[C@]2(C)[C@@H]1[C@H](O)C[C@@H]1[C@@]3(C)CC[C@H](O[C@@H]4O[C@H](CO)[C@@H](O)[C@H](O)[C@H]4O[C@@H]4O[C@H](CO)[C@@H](O)[C@H](O)[C@H]4O)C(C)(C)[C@@H]3CC[C@]12C [ginsenoside Rg3]	effect of inhibiting tube formation	effect of inhibiting tube formation	–	–	–	–
CC(C)=CCCC(C)(O)C1CCC2(C)C1C(O)CC1C3(C)CCC(O)C(C)(C)C3C(OC3OC(CO)C(O)C(O)C3O)CC12C [ginsenoside Rh1, 6-O-β-D-glucopyranoside-20(S)-protopanaxatriol]	effect of promoting tube formation at a higher level compared to that of the positive control	effect of promoting tube formation at a higher level compared to that of the positive control	about 100%	vascular leakage was inhibited by the pretreatment	further reduced compared to when the HUVECs were treated with ginsenoside F1 or Rh1 alone	effectively inhibit the vascular leakage symptoms induced by VEGF-A
ginsenoside Rb2	effect of inhibiting tube formation	effect of inhibiting tube formation	–	–	–	–
